Data on 8 molecules can be found in patent US20250017856A1, “CO-FORMULATION AND CO-DELIVERY OF IONIZABLE COLLOID FORMING DRUGS WITH NUCLEIC ACIDS” (THE GOVERNING COUNCIL OF THE UNIVERSITY OF TORONTO, priority 2023, published 2025).

The nature of data set [1]: RNA encapsulation efficiency (modified Quant-iT RiboGreen assay) and loading. It is filed as physicochemical. Conditions: for siRNA encapsulation (in words): drugs that were not colloid formers; for Encapsulation efficiency (%) / Small molecule drug mass % / siRNA mass %: FxNP. The source says: (§1) [NT] antisense (SEQ ID NO: 2): [NT] where “d” denotes a DNA base), siFLuc-2 (sense (SEQ ID NO: 3): [NT] antisense (SEQ ID NO: 4): [NT] where “d” denotes a DNA base and “m” indicates a 2'-O-methyl RNA base), sinLuc (sense (SEQ ID NO: 5): [NT] antisense SEQ ID NO: 6): [NT] where “d” denotes a DNA base), […]1 (sense (SEQ ID NO: 7): [NT] antisense (SEQ ID NO: 8): [NT] where “d” denotes a DNA base and “m” indicates a 2'-O-methyl RNA base), siNT (sense (SEQ ID NO: 9): [NT] antisense (SEQ ID NO: 10): [NT] where “d” denotes a DNA base and “m” indicates a 2'-O-methyl RNA base), mFLuc (EZ Cap Firefly Luciferase mRNA (5-moUTP), ApexBio), rRNA or RNA from Torula utilis yeast (T.U. RNA) was diluted in citrate buffer (50 or 25 mM, pH 4), malate buffer (25 mM, pH 4.0) or acetate buffer (25 mM, pH 4.0). A lipid/drug mix concentration of 5.5 mM was used with a total flow rate of 9 mL/min at a 3:1 ratio of aqueous to organic phase. […] After formulation, buffer exchange into PBS or Tris-buffered saline (TBS; pH 8.5) was performed using Amicon Ultra-4 centrifugal filters (molecular weight cut-off 10 kDa). Hydrodynamic diameter, polydispersity index (PDI), and scattering intensity were measured by dynamic light scattering (DLS) using a DynaPro Plate Reader II (Wyatt Technologies). The instrument was configured with a 60 mW 830 nm laser and a detector angle of 158°. A 25 μL sample of each formulation was pipetted into each well of a 384-well plate and measured with 20 acquisitions per sample at 25° C. […] Quant-iT RiboGreen reagent was added, and fluorescence intensity was quantified using a Tecan Infinite […] plate reader.

Data set [2] is described as follows: Zeta potential (Malvern Zetasizer). In kind it is physicochemical. Conditions: FxNP. Here is the method:
Zeta potential was measured by diluting FXNPs in phosphate to an ion concentration of 1 mM and using a Malvern Zetasizer Nano ZS instrument.

For data set [3] the following is noted: ionizable compound (fulvestrant analog); cited from earlier work.
Data set [4] is described as follows: Hydrodynamic diameter and polydispersity index by dynamic light scattering. It is filed as physicochemical. The settings on record: FxNP.
Source text: as §1

In the case of `CN(C)CCCN1c2ccccc2Sc2ccc(Cl)cc21` [chlorpromazine, reference compound], the “siRNA encapsulation (in words)” value in data set [1] was “did not encapsulate siRNA in nanoparticles or encapsulated siRNA at low efficiency”.
Still for that read-out and setting: next, `CNCCC=C1c2ccccc2CCc2ccccc21` [nortriptyline, reference compound]: “did not encapsulate siRNA in nanoparticles or encapsulated siRNA at low efficiency”.
Broadly, the pKa is the negative logarithm of the acid dissociation constant. As to `CN(C)CCC(=O)N=S(=O)(CCCCCCCCCC1Cc2cc(O)ccc2C2CCC3(C)C(O)CCC3C12)CCCC(F)(F)C(F)(F)F` (stereo not shown) [7k], the “Zeta potential (mV)” value in data set [2] (siFLuc, DSPC) is given as −8.53 mV. Besides, the pKa in data set [3] is reported as 7.8. Besides, in data set [4] (siFLuc, DSPC), the “Hydrodynamic diameter (nm)” value was determined as 426.9 nm and the PDI was 0.060. For the same molecule, in data set [1] (siFLuc, DSPC), the “Encapsulation efficiency (%)” value was found to be 80.2%, the “Small molecule drug mass %” value turned out to be 55.1% and the siRNA mass % was 4.2%.
As for `CC12CCC3c4ccc(O)cc4CC(CCCCCCCCCS(=O)(CCCC(F)(F)C(F)(F)F)=NC(=O)CN)C3C1CCC2O` (stereo not shown) [7m], the “Zeta potential (mV)” value in data set [2] (siFLuc, DSPC) was −6.62 mV. Also, the pKa in data set [3] is recorded as 8.1. Further, in data set [4] (siFLuc, DSPC), the “Hydrodynamic diameter (nm)” value stood at 447.8 nm and the PDI result is “Multimodal”. In data set [1] (siFLuc, DSPC), the “Encapsulation efficiency (%)” value was determined as 88.1%, the “Small molecule drug mass %” value is reported as 53.4% and the siRNA mass % turned out to be 4.7%.
On to `CC12CCC3c4ccc(O)cc4CC(CCCCCCCCCS(=O)(CCCC(F)(F)C(F)(F)F)=NC(=O)CN4CCCCC4)C3C1CCC2O` (stereo not shown) [7e], for which the “Zeta potential (mV)” value in data set [2] (siFLuc, DOPC) is −2.88 mV; in data set [2] (siFLuc, DSPC) it was −11.13 mV; in data set [2] (sinLuc, DOPC), −7.23 mV. Further, the pKa in data set [3] was 6.4. Besides, the “Hydrodynamic diameter (nm)” value stood at 214.2 nm in data set [4] (siFLuc, DOPC); 132.6 nm in data set [4] (siFLuc, DSPC); 215.1 nm in data set [4] (sinLuc, DOPC). Moreover, the PDI is listed as 0.068 in data set [4] (siFLuc, DOPC); 0.041 in data set [4] (siFLuc, DSPC); 0.066 in data set [4] (sinLuc, DOPC). The “Encapsulation efficiency (%)” value is 90.8% in data set [1] (siFLuc, DOPC); 90.8% in data set [1] (siFLuc, DSPC); 89.7% in data set [1] (sinLuc, DOPC). Also, the “Small molecule drug mass %” value is listed as 55.7% in data set [1] (siFLuc, DOPC); 55.7% in data set [1] (siFLuc, DSPC); 55.7% in data set [1] (sinLuc, DOPC). Also, the siRNA mass % in data set [1] (siFLuc, DOPC) is 4.6%; in data set [1] (siFLuc, DSPC) it was 4.6%; in data set [1] (sinLuc, DOPC), 4.5%.
For the molecule `CC12CCC3c4ccc(O)cc4CC(CCCCCCCCCS(=O)(CCCC(F)(F)C(F)(F)F)=NC(=O)C[N+](C)(C)C)C3C1CCC2O` (stereo not shown) [7l], the “Zeta potential (mV)” value in data set [2] (siFLuc, DSPC) was −2.05 mV. Besides, in data set [4] (siFLuc, DSPC), the “Hydrodynamic diameter (nm)” value came to 539.2 nm and the PDI result was “Multimodal”. Also, in data set [1] (siFLuc, DSPC), the “Encapsulation efficiency (%)” value is 87.6%, the “Small molecule drug mass %” value is recorded as 54.9% and the siRNA mass % is listed as 4.5%.
For the molecule `CN[C@H]1CC[C@@H](c2ccc(Cl)c(Cl)c2)c2ccccc21` [sertraline, reference compound], the “siRNA encapsulation (in words)” value in data set [1] is reported as “did not encapsulate siRNA in nanoparticles or encapsulated siRNA at low efficiency”.
Take `CC[C@H]1CN2CCc3cc(OC)c(OC)cc3[C@@H]2C[C@@H]1C[C@H]1NCCc2cc(OC)c(OC)cc21` [emetine, reference compound]: the “siRNA encapsulation (in words)” value in data set [1] is “did not encapsulate siRNA in nanoparticles or encapsulated siRNA at low efficiency”.
